Reference: ChEMBL document CHEMBL6134925, “Novel Pyrrolidinone Urea as FPR2 Agonists for Treating Atherosclerosis and Heart Failure” (ACS Med Chem Lett, 2025)
pEC50: −log10 of the molar value.

Target: T1, N-formyl peptide receptor 2 (Homo sapiens, UniProt P25090)
T1 sequence (P25090 whole entry): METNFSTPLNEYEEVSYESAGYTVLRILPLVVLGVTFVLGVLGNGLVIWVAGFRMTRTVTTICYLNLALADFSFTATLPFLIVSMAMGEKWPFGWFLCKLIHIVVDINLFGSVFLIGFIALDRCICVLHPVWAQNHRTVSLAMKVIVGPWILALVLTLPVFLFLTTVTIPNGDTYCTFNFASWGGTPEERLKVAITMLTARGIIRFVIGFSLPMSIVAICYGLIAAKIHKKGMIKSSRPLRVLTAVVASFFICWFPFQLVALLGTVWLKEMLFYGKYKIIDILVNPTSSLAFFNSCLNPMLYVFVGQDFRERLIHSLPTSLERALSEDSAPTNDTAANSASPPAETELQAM
Experiment: Agonist activity at human FPR2 receptor expressed in CHO cells assessed as forskolin/IBMX-induced intracellular cAMP level incubated for 30 mins by HTRF HiRange cAMP assay
Assay type: functional, cell-based

| Structure (SMILES) | pEC50 |
| --- | --- |
| CN(CCO)[C@@H]1CCN(c2ccc(N3CCC(NC(=O)Nc4ccc(Cl)cc4)C3=O)c(F)c2F)C1 (stereo partly specified) | 9.57 |
| CN[C@@H]1CCN(c2ccc(N3CCC(NC(=O)Nc4ccc(Cl)cc4)C3=O)c(F)c2F)C1 (stereo partly specified) | 8.25 |
| CN(C)[C@@H]1CCN(c2ccc(N3CC[C@@H](NC(=O)Nc4ccc(Cl)cc4)C3=O)c(F)c2F)C1 | 9.72 |

Second part, the molecule after the results:

| pEC50 | Structure (SMILES) |
| --- | --- |
| 8.14 | O=C(Nc1ccc(C(F)(F)F)cc1F)NC1CCN(c2c(F)cc(N3CCCS3(=O)=O)cc2F)C1=O (stereo unspecified) |
| 9.68 | CN(C)[C@@H]1CCN(c2ccc(N3CC[C@@H](NC(=O)Nc4ccc(C(F)(F)F)cc4)C3=O)c(F)c2F)C1 |
| 8.36 | O=C(Nc1ccc(Cl)cc1F)NC1CCN(c2c(F)cc(N3CCCS3(=O)=O)cc2F)C1=O (stereo unspecified) |
